Assay results taken from ChEMBL document CHEMBL1138864, “Synthesis of novel caspase inhibitors for characterization of the active caspase proteome in vitro and in vivo” (J Med Chem, 2006).
pKi: −log10 of the molar value.

Columns and labels:
Caspase-1 = target: T1, Caspase-1 (Homo sapiens, UniProt P29466); experiment: Inhibition of human caspase 1
T1 sequence (P29466 whole entry): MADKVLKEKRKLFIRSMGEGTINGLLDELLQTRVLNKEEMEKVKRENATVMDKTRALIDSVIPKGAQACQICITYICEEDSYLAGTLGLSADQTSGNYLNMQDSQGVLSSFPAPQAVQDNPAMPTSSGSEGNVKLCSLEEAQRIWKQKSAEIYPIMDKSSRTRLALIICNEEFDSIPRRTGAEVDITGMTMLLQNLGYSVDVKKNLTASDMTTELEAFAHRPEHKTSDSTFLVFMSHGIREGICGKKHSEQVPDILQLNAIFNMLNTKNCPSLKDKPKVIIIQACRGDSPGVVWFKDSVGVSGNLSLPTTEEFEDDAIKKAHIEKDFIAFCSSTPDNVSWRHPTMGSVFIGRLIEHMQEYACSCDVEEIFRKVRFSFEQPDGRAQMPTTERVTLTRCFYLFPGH

Caspase-2 = target: T2, Caspase-2 (Homo sapiens, UniProt P42575); experiment: Inhibition of human caspase 2
T2 sequence (P42575 whole entry): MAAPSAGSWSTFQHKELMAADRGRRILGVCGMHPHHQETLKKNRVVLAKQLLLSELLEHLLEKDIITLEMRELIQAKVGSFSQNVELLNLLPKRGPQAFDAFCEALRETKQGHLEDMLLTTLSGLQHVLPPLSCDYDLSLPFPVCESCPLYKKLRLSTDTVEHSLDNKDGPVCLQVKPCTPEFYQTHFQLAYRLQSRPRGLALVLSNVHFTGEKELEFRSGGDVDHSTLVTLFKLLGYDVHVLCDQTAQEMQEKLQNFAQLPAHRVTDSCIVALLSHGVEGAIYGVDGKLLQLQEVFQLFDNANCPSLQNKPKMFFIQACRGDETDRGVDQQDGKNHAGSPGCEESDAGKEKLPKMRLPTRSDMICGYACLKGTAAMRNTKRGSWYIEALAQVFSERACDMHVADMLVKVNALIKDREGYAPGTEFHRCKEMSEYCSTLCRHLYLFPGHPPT

Caspase-3 = target: T3, Caspase-3 (Homo sapiens, UniProt P42574); experiment: Inhibition of human caspase 3
T3 sequence (P42574 whole entry): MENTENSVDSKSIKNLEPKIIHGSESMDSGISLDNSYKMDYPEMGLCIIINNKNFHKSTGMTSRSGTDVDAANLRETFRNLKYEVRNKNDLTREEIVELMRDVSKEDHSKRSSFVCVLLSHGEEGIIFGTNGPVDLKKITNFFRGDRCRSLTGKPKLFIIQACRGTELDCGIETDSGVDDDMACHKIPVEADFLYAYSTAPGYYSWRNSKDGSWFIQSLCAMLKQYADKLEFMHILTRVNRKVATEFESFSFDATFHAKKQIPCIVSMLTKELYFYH

Caspase-6 = target: T4, Caspase-6 (Homo sapiens, UniProt P55212); experiment: Inhibition of human caspase 6
T4 sequence (P55212 whole entry): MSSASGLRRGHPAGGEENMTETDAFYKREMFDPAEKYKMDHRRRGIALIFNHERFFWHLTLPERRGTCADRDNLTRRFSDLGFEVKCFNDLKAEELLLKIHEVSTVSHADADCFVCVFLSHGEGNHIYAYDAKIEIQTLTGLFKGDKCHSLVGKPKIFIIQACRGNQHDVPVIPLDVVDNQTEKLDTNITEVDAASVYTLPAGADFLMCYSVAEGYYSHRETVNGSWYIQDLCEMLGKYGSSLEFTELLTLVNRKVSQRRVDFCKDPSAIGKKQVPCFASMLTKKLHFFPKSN

Caspase-7 = target: T5, Caspase-7 (Homo sapiens, UniProt P55210); experiment: Inhibition of human caspase 7
T5 sequence (P55210 whole entry): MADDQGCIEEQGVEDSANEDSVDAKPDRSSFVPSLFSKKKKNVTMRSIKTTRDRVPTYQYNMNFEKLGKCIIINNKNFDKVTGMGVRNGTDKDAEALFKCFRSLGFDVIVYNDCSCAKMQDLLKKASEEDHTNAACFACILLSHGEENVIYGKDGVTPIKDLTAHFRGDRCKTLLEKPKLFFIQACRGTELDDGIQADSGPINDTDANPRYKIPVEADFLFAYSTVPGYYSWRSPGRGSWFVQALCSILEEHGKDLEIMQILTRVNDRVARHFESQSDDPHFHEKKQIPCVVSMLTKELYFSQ

Caspase-8 = Caspase-8 (Homo sapiens, UniProt Q14790); experiment: Inhibition of human caspase 8
Sequence of Caspase-8 (Q14790 217-374 limits assumed): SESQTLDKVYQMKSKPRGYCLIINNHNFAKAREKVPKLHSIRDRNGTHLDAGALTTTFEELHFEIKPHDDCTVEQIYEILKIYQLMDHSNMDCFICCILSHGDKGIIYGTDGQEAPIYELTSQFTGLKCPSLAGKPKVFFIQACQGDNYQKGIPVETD
Sequence of Caspase-8 (Q14790 385-479 limits assumed): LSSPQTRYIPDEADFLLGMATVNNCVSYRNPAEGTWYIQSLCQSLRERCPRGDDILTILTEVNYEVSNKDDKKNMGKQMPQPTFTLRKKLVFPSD

With `Cc1cccc(C)c1C(=O)OCC(=O)[C@H](CC(=O)O)NC(=O)[C@H](CCCCNC(=O)CCCCCNC(=O)CCCCC1SC[C@@H]2NC(=O)N[C@H]12)NC(=O)[C@H](CCC(=O)O)NC(=O)OCc1ccccc1` (stereo partly specified) the pKi (Caspase-1) was 8.20, the pKi (Caspase-2) was 4.54 and the pKi (Caspase-3) was 6.08. It also gave a pKi (Caspase-6) of 3.26, a pKi (Caspase-7) of 5.92 and a pKi (Caspase-8) of 6.27.
